Key:
[1] = system: HCT116 (colon) cancer cells; experiment: In vitro cytotoxic activity (MTT) assay, HCT116; type: cell-based; settings: Homo sapiens, HCT-116, exposed for 96 hours, read-out: IC50, inhibition of cell proliferation, HCT116 (colon)
Description: (§1) Compounds 1-12 were screened for their in vitro cytotoxic activity utilizing a 3-(4,5-dimethyl-thiazol-2-yl)-2,5-diphenyltetrazolium bromide (MTT) assay against selected cancer human cell lines consisting of PC3 (prostate), HCT116 (colon), A375 (melanoma), H1299 (lung), MIAPaCa-2 (pancreas), HL60 (leukemia), MCF7 (breast), MDA-MB-231 (breast) (T. Mosmann, J. Immunol. Meth., 1983, 65, 55-63). The cells were cultured at 37° C. in RMPI1640 medium supplemented with 10% fetal bovine serum, 50 IU/mL penicillin, and 50 μg/mL streptomycin in a 5% CO2 incubator. All cells were sub-cultured 3 times/week by trypsinisation. Viable cells were seeded and allowed to adhere for 12 h before a test drug was added in 96-well plates at an initial density of 1.0×10^5 cells/mL. Tumour cell lines were separately exposed to various concentrations of the tested compounds followed by incubation at a temperature of 37° C. during 96 h inside a medium of fresh RMPI 1640. Cells were subsequently incubated at 37° C. using MTT at 0.5 mg/mL during 4 h. After removal of supernatant, formazan crystals were dissolved in isopropanol and the optical density was measured at 570 nm. CX-4945 was used as a positive control.

[2] = system: H1299 (lung) cancer cells; experiment: In vitro cytotoxic activity (MTT) assay, H1299; type: cell-based; settings: Homo sapiens, NCI-H1299, exposed for 96 hours, read-out: IC50, inhibition of cell proliferation, H1299 (lung)
Description: as §1

[3] = system: MIAPaCa-2 (pancreas) cancer cells; experiment: In vitro cytotoxic activity (MTT) assay, MIAPaCa-2; type: cell-based; settings: Homo sapiens, MIA PaCa-2; MIAPaCa-2 cells, exposed for 96 hours; read-out: IC50, inhibition of cell proliferation, MIAPaCa-2 (pancreas)
Description: as §1

[4] = system: A375 (melanoma) cancer cells; experiment: In vitro cytotoxic activity (MTT) assay, A375; type: cell-based; settings: Homo sapiens, A-375, exposed for 96 hours, read-out: IC50, inhibition of cell proliferation, A375 (melanoma)
Description: as §1

[5] = target: T1, recombinant human CK2 (RRββ-holoenzyme) (Homo sapiens, UniProt P68400); experiment: CK2 kinase assay (radiometric, [γ-33P]ATP); type: biochemical; settings: final ATP 15 μM, 10 min at 30° C., eight concentrations; read-out: IC50, protein kinase CK2 activity
T1 construct: purchased Millipore
T1 sequence (P68400 whole entry): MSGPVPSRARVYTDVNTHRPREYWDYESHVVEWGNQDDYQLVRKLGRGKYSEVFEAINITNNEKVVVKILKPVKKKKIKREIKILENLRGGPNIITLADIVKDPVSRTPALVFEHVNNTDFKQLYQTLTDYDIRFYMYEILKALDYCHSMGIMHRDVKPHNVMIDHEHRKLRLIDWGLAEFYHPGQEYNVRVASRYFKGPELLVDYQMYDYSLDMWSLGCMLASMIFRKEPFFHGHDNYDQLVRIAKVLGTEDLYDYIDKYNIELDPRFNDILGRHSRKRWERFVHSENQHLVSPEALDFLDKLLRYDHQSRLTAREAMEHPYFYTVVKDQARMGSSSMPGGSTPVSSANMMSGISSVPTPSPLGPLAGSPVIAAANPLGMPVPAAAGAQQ
T1 sequence (P67870 whole entry partner): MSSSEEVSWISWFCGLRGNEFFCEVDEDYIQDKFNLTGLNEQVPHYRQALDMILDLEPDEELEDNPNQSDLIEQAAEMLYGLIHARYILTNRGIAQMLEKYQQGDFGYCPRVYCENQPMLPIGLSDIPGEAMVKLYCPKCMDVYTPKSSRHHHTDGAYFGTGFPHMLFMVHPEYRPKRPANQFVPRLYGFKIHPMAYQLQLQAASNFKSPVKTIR
Description: CK2 Kinase Assay was conducted using the protocol as described in Pierre F. et al; J. Med. Chem. 2011, 54, 635-654. The tested compounds in aqueous solution were added at a volume of 10 μL to a reaction mixture comprising 10 μL of assay dilution buffer (ADB; 20 mM MOPS, pH 7.2, 25 mM β-glycerol phosphate, 5 mM EGTA, 1 mM sodium orthovanadate, and 1 mM dithiothreitol), 10 μL of substrate peptide (RRRDDDSDDD, dissolved in ADB at a concentration of 1 mM), 10 μL of recombinant human CK2 (RRββ-holoenzyme, 25 ng dissolved in ADB; Millipore). Reactions were initiated by the addition of 10 μL of ATP solution (90% 75 mMMgCl2, 75 μM ATP (final ATP concentration:15 μM) dissolved in ADB; 10% [γ-33P] ATP (stock 1 mCi/100 μL; 3000 Ci/mmol (Perkin-Elmer) and maintained for 10 min at 30° C. The reactions were quenched with 100 μL of 0.75% phosphoric acid and then transferred to and filtered through a phosphor cellulose filter plate (Millipore). After washing each well five times with 0.75% phosphoric acid, the plate was dried under vacuum for 5 min and, following the addition of 15 μL of scintillation fluid to each well, the residual radioactivity was measured using a Wallac luminescence counter. The IC50 values were derived from eight concentrations of test inhibitors.

[6] = system: MDA-MB-231 (breast) cancer cells; experiment: In vitro cytotoxic activity (MTT) assay, MDA-MB-231; type: cell-based; settings: Homo sapiens; MDA-MB-231 cells, exposed for 96 hours; read-out: IC50, inhibition of cell proliferation, MDA-MB-231 (breast)
Description: as §1

[7] = system: HL60 (leukemia) cancer cells; experiment: In vitro cytotoxic activity (MTT) assay, HL60; type: cell-based; settings: Homo sapiens, HL-60, exposed for 96 hours, read-out: IC50, inhibition of cell proliferation, HL60 (leukemia)
Description: as §1

[8] = system: MCF7 (breast) cancer cells; experiment: In vitro cytotoxic activity (MTT) assay, MCF7; type: cell-based; settings: Homo sapiens, exposed for 96 hours, read-out: IC50, inhibition of cell proliferation, MCF7 (breast)
Description: as §1

[9] = system: PC3 (prostate) cancer cells; experiment: In vitro cytotoxic activity (MTT) assay, PC3; type: cell-based; settings: Homo sapiens, PC-3, exposed for 96 hours, read-out: IC50, inhibition of cell proliferation, PC3 (prostate)
Description: as §1

Question: With O=C(O)c1ccc2c3cnccc3n(C(=O)c3cccc(Cl)c3)c2c1 [Compound (7), 5-(3-chlorobenzoyl)-5H-pyrido[4,3-b]indole-7-carboxylic acid] as the compound, how does the IC50 [1] read?
Answer: 1600 nM

Question: What about the IC50 [2] of the same compound?
Answer: 1100 nM

Question: And the IC50 [3]?
Answer: 2300 nM

Question: And the IC50 [4]?
Answer: 4400 nM

Question: And the IC50 [5]?
Answer: 36 nM

Question: And the IC50 [6]?
Answer: 3600 nM

Question: And the IC50 [7]?
Answer: 1700 nM

Question: What about the IC50 [8] of the same compound?
Answer: 5200 nM

Question: What about the IC50 [9] of the same compound?
Answer: 900 nM

— patent US11851430B1, “Pyrido[4,3-B]indole-7-carboxylic acid compounds as CK2 inhibitors” (KING FAISAL UNIVERSITY, priority 2023, dated 2023)
